Experimental data: ChEMBL document CHEMBL1201862, “PubChem BioAssay data set” (2004)
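Cells were grown in 96-well plates and exposed to each compound for 48 hours at five concentrations; endpoints were interpolated linearly between bracketing concentrations, or set to the highest concentration if not reached. GI50 marks 50% less growth.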 Calls of active or inactive are those of the source. No stated cut-off is given here; in the data, active = GI50 up to about 1.1 µM and inactive = higher.

Tests used:
Assay in all cases: NCI anticancer screen, dose series, 48 h
[1] = tested on: M14
[2] = tested on: A498
[3] = tested on: PC-3
[4] = tested on: HT-29
[5] = tested on: SNB-19
[6] = tested on: BT-549
[7] = tested on: NCI/ADR-RES
[8] = tested on: NCI-H522
[9] = tested on: NCI-H226
[10] = tested on: IGROV-1
[11] = tested on: MCF7
[12] = tested on: MOLT-4
[13] = tested on: NCI-H460
[14] = tested on: SK-MEL-2
[15] = tested on: OVCAR-5
[16] = tested on: HCT-15
[17] = tested on: SK-OV-3
[18] = tested on: SN12C
[19] = tested on: UACC-257
[20] = tested on: DU-145
[21] = tested on: MDA-MB-231
[22] = tested on: 786-0
[23] = tested on: HOP-92
[24] = tested on: RXF 393
[25] = tested on: EKVX
[26] = tested on: COLO 205
[27] = tested on: ACHN
[28] = tested on: U-251
[29] = tested on: SF-268
[30] = tested on: HOP-62
[31] = tested on: UO-31
[32] = tested on: SK-MEL-28
[33] = tested on: TK-10
[34] = tested on: SW-620
[35] = tested on: OVCAR-8
[36] = tested on: CCRF-CEM
[37] = tested on: HCT-116
[38] = tested on: HCC 2998
[39] = tested on: KM12
[40] = tested on: K562
[41] = tested on: SK-MEL-5
[42] = tested on: Hs-578T
[43] = tested on: HL-60
[44] = tested on: CAKI-1
[45] = tested on: A549
[46] = tested on: RPMI-8226
[47] = tested on: OVCAR-4
[48] = tested on: LOX IMVI
[49] = tested on: SF-295
[50] = tested on: MDA-MB-435
[51] = tested on: OVCAR-3
[52] = tested on: UACC-62
[53] = tested on: SF-539
[54] = tested on: NCI-H23
[55] = tested on: SNB-75
[56] = tested on: T47D
[57] = tested on: Malme-3M
[58] = tested on: SR
[59] = tested on: MDA-N

## C[C@@H]1CCC[C@]2(C)O[C@H]2CC[C@@](C)(O)[C@@H]2CC3=C(CO)C(=O)O[C@H]3[C@H]1O2
[1]
  GI50: > 50 µM (inactive)
[2]
  GI50: > 50 µM (inactive)
[3]
  GI50: > 50 µM (inactive)
[4]
  GI50: > 50 µM (inactive)
[5]
  GI50: > 50 µM (inactive)
[6]
  GI50: > 50 µM (inactive)
[7]
  GI50: > 50 µM (inactive)
[8]
  GI50: 28.4 µM (inactive)
[9]
  GI50: > 50 µM (inactive)
[10]
  GI50: 25.5 µM (inactive)
[11]
  GI50: > 50 µM (inactive)
[12]
  GI50: > 50 µM (inactive)
[13]
  GI50: > 50 µM (inactive)
[14]
  GI50: > 50 µM (inactive)
[15]
  GI50: > 50 µM (inactive)
[16]
  GI50: > 50 µM
[17]
  GI50: > 50 µM (inactive)
[18]
  GI50: > 50 µM (inactive)
[19]
  GI50: > 50 µM (inactive)
[20]
  GI50: > 50 µM (inactive)
[21]
  GI50: > 50 µM (inactive)
[22]
  GI50: > 50 µM (inactive)
[23]
  GI50: > 50 µM (inactive)
[24]
  GI50: > 50 µM (inactive)
[25]
  GI50: > 50 µM (inactive)
[26]
  GI50: > 50 µM (inactive)
[27]
  GI50: > 50 µM (inactive)
[28]
  GI50: > 50 µM (inactive)
[29]
  GI50: > 50 µM (inactive)
[30]
  GI50: > 50 µM (inactive)
[31]
  GI50: > 50 µM (inactive)
[32]
  GI50: > 50 µM (inactive)
[33]
  GI50: > 50 µM (inactive)
[34]
  GI50: > 50 µM (inactive)
[35]
  GI50: > 50 µM (inactive)
[36]
  GI50: 34.1 µM (inactive)
[37]
  GI50: > 50 µM (inactive)
[38]
  GI50: > 50 µM (inactive)
[39]
  GI50: > 50 µM (inactive)
[40]
  GI50: > 50 µM (inactive)
[41]
  GI50: > 50 µM (inactive)
[42]
  GI50: > 50 µM (inactive)
[43]
  GI50: > 5 µM (inactive)
[44]
  GI50: > 50 µM (inactive)
[45]
  GI50: > 50 µM (inactive)
[46]
  GI50: 28.1 µM (inactive)
[47]
  GI50: > 50 µM (inactive)
[48]
  GI50: > 50 µM (inactive)
[49]
  GI50: > 50 µM (inactive)
[50]
  GI50: > 50 µM (inactive)
[51]
  GI50: > 50 µM (inactive)
[52]
  GI50: > 50 µM (inactive)
[53]
  GI50: > 50 µM (inactive)
[54]
  GI50: > 50 µM (inactive)
[55]
  GI50: > 50 µM (inactive)
[56]
  GI50: > 50 µM (inactive)

## O=C(CSCC(=O)N/N=C/c1cccc(OCc2ccccc2)c1)N/N=C/c1cccc(OCc2ccccc2)c1
[1]
  GI50: 37.5 µM (inactive)
[2]
  GI50: > 44.3 µM (inactive)
[3]
  GI50: 20 µM (inactive)
[4]
  GI50: 39.5 µM (inactive)
[5]
  GI50: 57.5 µM (inactive)
[6]
  GI50: 68.1 µM (inactive)
[7]
  GI50: 44.6 µM (inactive)
[8]
  GI50: > 47.6 µM (inactive)
[9]
  GI50: > 74.5 µM (inactive)
[10]
  GI50: > 70.8 µM (inactive)
[11]
  GI50: 33.7 µM (inactive)
[12]
  GI50: 15.5 µM (inactive)
[13]
  GI50: 34.4 µM (inactive)
[14]
  GI50: 41.3 µM (inactive)
[15]
  GI50: 96.8 µM (inactive)
[16]
  GI50: 44.4 µM
[17]
  GI50: > 100 µM (inactive)
[18]
  GI50: 35.5 µM (inactive)
[19]
  GI50: 32.3 µM (inactive)
[20]
  GI50: > 100 µM (inactive)
[21]
  GI50: > 100 µM (inactive)
[57]
  GI50: 45.5 µM (inactive)
[22]
  GI50: 54.2 µM (inactive)
[23]
  GI50: 36.7 µM (inactive)
[24]
  GI50: > 69.7 µM (inactive)
[25]
  GI50: 69.3 µM (inactive)
[27]
  GI50: 32.9 µM (inactive)
[28]
  GI50: 39.2 µM (inactive)
[29]
  GI50: > 80.2 µM (inactive)
[30]
  GI50: > 100 µM (inactive)
[31]
  GI50: 46.9 µM (inactive)
[32]
  GI50: > 100 µM (inactive)
[33]
  GI50: 33.3 µM (inactive)
[34]
  GI50: > 87.1 µM (inactive)
[35]
  GI50: 32.2 µM (inactive)
[36]
  GI50: 24.4 µM (inactive)
[37]
  GI50: 26.8 µM (inactive)
[38]
  GI50: 30.6 µM (inactive)
[39]
  GI50: 33.3 µM (inactive)
[40]
  GI50: 22.3 µM (inactive)
[41]
  GI50: 31.3 µM (inactive)
[42]
  GI50: > 100 µM (inactive)
[43]
  GI50: 21.5 µM (inactive)
[44]
  GI50: > 100 µM (inactive)
[45]
  GI50: 27.9 µM (inactive)
[46]
  GI50: 8.91 µM (inactive)
[47]
  GI50: > 76.4 µM (inactive)
[48]
  GI50: 36.1 µM (inactive)
[49]
  GI50: 34.2 µM (inactive)
[50]
  GI50: 37.5 µM (inactive)
[51]
  GI50: 39.5 µM (inactive)
[52]
  GI50: > 92.3 µM (inactive)
[53]
  GI50: > 100 µM (inactive)
[54]
  GI50: 36.6 µM (inactive)
[55]
  GI50: > 100 µM (inactive)
[56]
  GI50: 38.9 µM (inactive)

## NC(=O)CC[C@H]1C(=O)N=C(N)N1C(=O)OCc1ccccc1
[2]
  GI50: > 100 µM (inactive)
[3]
  GI50: > 100 µM (inactive)
[4]
  GI50: > 100 µM (inactive)
[5]
  GI50: > 100 µM (inactive)
[6]
  GI50: > 100 µM (inactive)
[7]
  GI50: > 100 µM (inactive)
[8]
  GI50: > 100 µM (inactive)
[9]
  GI50: > 100 µM (inactive)
[10]
  GI50: > 100 µM (inactive)
[11]
  GI50: > 100 µM (inactive)
[12]
  GI50: > 100 µM (inactive)
[13]
  GI50: > 100 µM (inactive)
[14]
  GI50: > 100 µM (inactive)
[58]
  GI50: > 100 µM (inactive)
[15]
  GI50: > 100 µM (inactive)
[16]
  GI50: > 100 µM
[18]
  GI50: > 100 µM (inactive)
[19]
  GI50: > 100 µM (inactive)
[20]
  GI50: > 100 µM (inactive)
[21]
  GI50: > 100 µM (inactive)
[57]
  GI50: > 100 µM (inactive)
[22]
  GI50: > 100 µM (inactive)
[24]
  GI50: > 100 µM (inactive)
[25]
  GI50: > 100 µM (inactive)
[26]
  GI50: > 100 µM (inactive)
[27]
  GI50: > 100 µM (inactive)
[28]
  GI50: > 100 µM (inactive)
[29]
  GI50: > 100 µM (inactive)
[30]
  GI50: > 100 µM (inactive)
[31]
  GI50: > 100 µM (inactive)
[32]
  GI50: > 100 µM (inactive)
[33]
  GI50: > 100 µM (inactive)
[34]
  GI50: > 100 µM (inactive)
[35]
  GI50: > 100 µM (inactive)
[37]
  GI50: > 100 µM (inactive)
[38]
  GI50: > 100 µM (inactive)
[39]
  GI50: > 100 µM (inactive)
[40]
  GI50: > 100 µM (inactive)
[41]
  GI50: > 100 µM (inactive)
[42]
  GI50: > 100 µM (inactive)
[43]
  GI50: > 100 µM (inactive)
[44]
  GI50: > 100 µM (inactive)
[46]
  GI50: > 100 µM (inactive)
[47]
  GI50: > 100 µM (inactive)
[48]
  GI50: > 100 µM (inactive)
[49]
  GI50: > 100 µM (inactive)
[50]
  GI50: > 100 µM (inactive)
[51]
  GI50: > 100 µM (inactive)
[52]
  GI50: > 100 µM (inactive)
[54]
  GI50: > 100 µM (inactive)
[55]
  GI50: > 100 µM (inactive)
[59]
  GI50: > 100 µM (inactive)
